Laboratory results as given in US10694724B2, “Transgenic mouse for the assessment of thyroid hormone (TH) action” (MAGYAR TUDOMÁNYOS AKADÉMIA KÍSÉRLETI ORVOSTUDOMÁNYI KUTATÓ …, priority 2014, dated 2020).
Entries after “also recorded” stand apart in the source; their conditions may differ. Values belong to the compound of their own block, whether it stands above or below them.

Legend:
[1] = system: thyroid hormone receptor isoform specific action (TRβ dominant liver, TRα dominant heart; Luciferase reporter); experiment: Testing TR isoform specific agonists: Luciferase activity in liver and heart of line #4 with decreased endogenous thyroid hormone; assay type: in vivo, mouse
Experimental: FIG. 7. The transgenic mouse model is capable to detect thyroid hormone receptor isoform specific T3 actions. […] Mean±SEM (n=5) ** p<0.01 by t test.
We decreased the endogenous thyroid hormone levels in line #4 by administering methimazole and perchlorate (0.1% methimazole, 0.5% perchlorate) in the drinking water followed by the i.p. injection of 1.53 nM/g BW of GC-24, a TRβ specific agonist (35). Luciferase activity assay was performed using our established protocol (34) modified for tissue samples, that included treatment of mouse tissue with liquid nitrogen, followed by sonication. In vivo Luciferase imaging has been performed on an IVIS Lumina II In vivo Imaging System (PerkinElmer Waltham, Mass., USA) according to the instructions of the manufacturer.

[2] = system: TH action in live animals (Luciferase reporter); experiment: In vivo bioluminescence imaging of Luciferase in live line #4 mice; set-up: species or system mouse; conditions: 1 μg/g BW T3 i.p., luciferin 24 h later
Experimental: Mean±SEM (n=4) ** p<0.01 **p<0.0001 by t test.
After 15 min, mice were anesthetized with ketamine followed by detection with […] In vivo Imaging System (PerkinElmer Waltham, Mass., USA).

[3] = system: luciferase mRNA as a readout of TH action; experiment: Luciferase mRNA by TaqMan qPCR in the pituitary of line #23; assay type: in vivo, mouse; conditions: TaqMan assay
Experimental: Expression was assessed with TaqMan assay, Luciferase expression level was denominated with GAPDH expression used as housekeeping gene. Mean±SEM (n=5) *** p<0.0001 by t test.
We also studied whether detection of luciferase mRNA can be used to detect as a readout of TH action in the generated transgenic model. […] TaqMan qPCR was performed on a ViiA 7 Real-Time PCR System (Life Technologies) according to the instructions of the manufacturer. In short, reverse transcription was performed with High Capacity cDNA Reverse Transcriptase Kit (Applied Biosystems by Life Technologies) and concentration of the cDNA was determined using the Qubit 2.0 Fluorometer with the Qubit ssDNA Assay Kit (Life Technologies). A custom Luciferase coding probe was used along with a commercially available probe for Glyceraldehyde-3-phosphate dehydrogenase (GAPDH), later used as housekeeping gene.

[4] = system: THAIC construct in HEK293 cells with mouse TRα; experiment: Luciferase promoter assay in HEK293 cells transfected with THAIC and mouse TRα plasmid; assay type: cell-based, human; conditions: HEK293 transfected with THAIC, SB100 and mouse TRα plasmid; 100 nM T3
Experimental: The THAIC construct was transfected to the human HEK293 cells along with a pCMV(CAT)T7-SB100 Sleeping Beauty transposon expressing vector and a mouse TRα encoding plasmid. Transfection and cell culturing of HEK293 cells was performed according to our established protocol (36). (FIG. 10)
(B) We also used zeocin-assisted selection and obtained cultures stably expressing Luciferase and generated the HEK293-THAIC cell line stably expressing the TH action indicator construct of the THAM model. The reporter of the cell line is responsive to TH in a TR dependent manner.

[5] = system: thyroid hormone (TH) action (3xTRE-TK driven Luciferase reporter); experiment: Luciferase activity (luciferase assay) in tissues of THAIM line #18 mice; assay type: in vivo, mouse
Experimental: Characterization of the #4, 18 and 23 lines identified thyroid hormone (5 ug of T4/day/mouse for 3 days) induced induction of Luciferase expression in various tissues of homozygote males.
Basal and thyroid hormone induced values and fold changes (induced/basal) of Luciferase activities in tissues of sacrificed animals (Mean±SEM, n=4). P values oft test (basal vs. induced) are provided, * represents statistical significance. (A, B, C) T4 treatment (5 ug/mouse/day for 3 days; i.p.) in mouse lines #4, 18, and 23. Basal activity levels in #18 are higher than other two lines. […] All experiments were performed on homozygote males.
(FIG. 4). Unilateral denervation of sympathetic nerves innervating the iBAT has been performed as described in (32). Measurement of the activity of type 2 deiodinase was performed according to the American Thyroid Association Guide to investigating thyroid hormone economy and action in rodent and cell models (33)). THAIM #4 mice underwent unilateral denervation of sympathetic nerves innervating the BAT. Luciferase activity assay was performed using our established protocol (34) modified for tissue samples. […] This increase was abolished by denervation but TH action was maintained at room temperature (intact vs. denervated). (A). In the denervated samples, this was paralleled by abolished response of D2 activity to cold and maintenance of the basal D2 activity in the denervated lobe at room temperature (B).

[6] = system: thyroid hormone (TH) action (3xTRE-TK driven Luciferase reporter); experiment: Luciferase activity (luciferase assay) in tissues of THAIM line #4 mice; assay type: in vivo, mouse; conditions: for Fold (mean ± SEM), induced/basal Luciferase activity / induced Luciferase activity: line #4, T4 5 ug/mouse/day for 3 days i.p.
Experimental: (§1) (A, B, C) T4 treatment (5 ug/mouse/day for 3 days; i.p.) in mouse lines #4, 18, and 23. […] All experiments were performed on homozygote males.
(§2) Unilateral denervation of sympathetic nerves innervating the iBAT has been performed as described in (32). Measurement of the activity of type 2 deiodinase was performed according to the American Thyroid Association Guide to investigating thyroid hormone economy and action in rodent and cell models (33)). THAIM #4 mice underwent unilateral denervation of sympathetic nerves innervating the BAT. Luciferase activity assay was performed using our established protocol (34) modified for tissue samples.

[7] = system: thyroid hormone (TH) action (3xTRE-TK driven Luciferase reporter); experiment: Luciferase activity (luciferase assay) in tissues of THAIM line #23 mice; assay type: in vivo, mouse; conditions: for Fold (mean ± SEM), induced/basal Luciferase activity / induced Luciferase activity: line #23, T4 5 ug/mouse/day for 3 days i.p.
Experimental: as §1, §2

[8] = line #18, Cerebellum, T4 5 ug/mouse/day for 3 days i.p.
[9] = line #18, Cortex, T4 5 ug/mouse/day for 3 days i.p.
[10] = line #18, HC, T4 5 ug/mouse/day for 3 days i.p.
[11] = line #18, HT, T4 5 ug/mouse/day for 3 days i.p.
[12] = line #18, MBH, T4 5 ug/mouse/day for 3 days i.p.
[13] = line #18, Pit, T4 5 ug/mouse/day for 3 days i.p.
[14] = Mandibular salivatory gland (MSG)

- Luciferase activity in liver ([1]; i.p. 1.53 nM/g BW, after 24 hours, TRβ isoform dominant liver): significantly increased
SMILES: Cc1cc(OCC(=O)O)cc(C)c1Cc1ccc(O)c(Cc2ccccc2)c1 [GC-24]
- Luciferase activity in heart ([1]; i.p. 1.53 nM/g BW, after 24 hours, TRα isoform dominant heart): did not change; also recorded: no significant change

- luciferase activity in both tissues (liver and heart) ([1]; T3 administration): significant increase
- Luciferase mRNA level in the pituitary ([3]; T3-treatment, denominated with GAPDH): robustly increased
SMILES: N[C@@H](Cc1cc(I)c(Oc2ccc(O)c(I)c2)c(I)c1)C(=O)O [T3, 3,5,3′-triiodothyronine]
- reporter activity in the BAT and intestine (in vivo imaging) [2]: very intense increase
- reporter activity in the mandibular salivary gland (MSG) and skin of the tail and foot pads (in vivo imaging) [2]: up-regulated
- induction of luciferase mRNA in the pituitary ([3]; 1 μg/g bw T3 i.p., GAPDH housekeeping): ~50 fold
- induction of Luciferase expression [4]: approximately 4 fold

- Luciferase activity (basal and induced) ([5]; line #18, Liver (cell also covers Heart, iBAT, Bone, Muscle, MSG, Thyroid, Testicle, Intestine), T4 5 ug/mouse/day for 3 days i.p.): no expression
- response of Luciferase expression in the pituitary ([5]; line #18 homozygote males, 5 ug of T4/day/mouse for 3 days): intense response
- induction of Luciferase expression in the BAT ([6]; line #4 homozygote males, 5 ug of T4/day/mouse for 3 days): striking response
- response of Luciferase expression in the pituitary and hypothalamus ([7]; line #23 homozygote males, 5 ug of T4/day/mouse for 3 days): intense response
SMILES: N[C@@H](Cc1cc(I)c(Oc2cc(I)c(O)c(I)c2)c(I)c1)C(=O)O [T4, thyroxine]
- Fold (mean ± SEM), induced/basal Luciferase activity [5, 8]: 1.8 ± 0.31 Fold
- induced Luciferase activity [5, 8]: 0.063 RLU/mg protein
- Fold (mean ± SEM), induced/basal Luciferase activity [5, 9]: 1.9 ± 1.18 Fold
- induced Luciferase activity [5, 9]: 2.586 RLU/mg protein
- Fold (mean ± SEM), induced/basal Luciferase activity [5, 10]: 2.1 ± 0.25 Fold
- induced Luciferase activity [5, 10]: 3.756 RLU/mg protein
- Fold (mean ± SEM), induced/basal Luciferase activity [5, 11]: 2.8 ± 0.35 Fold
- induced Luciferase activity [5, 11]: 1.589 RLU/mg protein
- Fold (mean ± SEM), induced/basal Luciferase activity [5, 12]: 2.2 ± 0.25 Fold
- induced Luciferase activity [5, 12]: 0.602 RLU/mg protein
- Fold (mean ± SEM), induced/basal Luciferase activity [5, 13]: 8.2 ± 0.36 Fold
- induced Luciferase activity [5, 13]: 0.540 RLU/mg protein
- Fold (mean ± SEM), induced/basal Luciferase activity ([6]; Bone): 2.2 ± 0.18 Fold
- induced Luciferase activity ([6]; Bone): 0.066 RLU/mg protein
- Fold (mean ± SEM), induced/basal Luciferase activity ([6]; Cerebellum (CER)): 2.3 ± 0.41 Fold
- induced Luciferase activity ([6]; Cerebellum (CER)): 2.162 RLU/mg protein
- Fold (mean ± SEM), induced/basal Luciferase activity ([6]; Cortex (CTX)): 1.9 ± 0.30 Fold
- induced Luciferase activity ([6]; Cortex (CTX)): 0.359 RLU/mg protein
- Fold (mean ± SEM), induced/basal Luciferase activity ([6]; Heart): 8.5 ± 0.31 Fold
- induced Luciferase activity ([6]; Heart): 0.030 RLU/mg protein
- Fold (mean ± SEM), induced/basal Luciferase activity ([6]; Hippocampus (HC)): 1.9 ± 0.03 Fold
- induced Luciferase activity ([6]; Hippocampus (HC)): 0.116 RLU/mg protein
- Fold (mean ± SEM), induced/basal Luciferase activity ([6]; Hypothalamus (HT)): 1.3 ± 0.08 Fold
- induced Luciferase activity ([6]; Hypothalamus (HT)): 0.488 RLU/mg protein
- Fold (mean ± SEM), induced/basal Luciferase activity ([6]; Intestine): 2.1 ± 0.30 Fold
- induced Luciferase activity ([6]; Intestine): 9.480 RLU/mg protein
- Fold (mean ± SEM), induced/basal Luciferase activity ([6]; Liver): 1.9 ± 0.14 Fold
- induced Luciferase activity ([6]; Liver): 0.005 RLU/mg protein
- Fold (mean ± SEM), induced/basal Luciferase activity [6, 14]: 7.6 ± 2.60 Fold
- induced Luciferase activity [6, 14]: 0.399 RLU/mg protein
- Fold (mean ± SEM), induced/basal Luciferase activity ([6]; Mediobasal Hypothalamus (MBH)): 1.8 ± 0.20 Fold
- induced Luciferase activity ([6]; Mediobasal Hypothalamus (MBH)): 0.368 RLU/mg protein
- Fold (mean ± SEM), induced/basal Luciferase activity ([6]; Muscle): 11.2 ± 5.7 Fold
- induced Luciferase activity ([6]; Muscle): 0.276 RLU/mg protein
- Fold (mean ± SEM), induced/basal Luciferase activity ([6]; Pituitary (Pit)): 2.3 ± 0.16 Fold
- induced Luciferase activity ([6]; Pituitary (Pit)): 0.791 RLU/mg protein
- Fold (mean ± SEM), induced/basal Luciferase activity ([6]; Skin): 4.0 ± 0.76 Fold
- induced Luciferase activity ([6]; Skin): 2.798 RLU/mg protein
- Fold (mean ± SEM), induced/basal Luciferase activity ([6]; Testicle): 0.8 ± 0.06 Fold
- induced Luciferase activity ([6]; Testicle): 4.09 RLU/mg protein
- Fold (mean ± SEM), induced/basal Luciferase activity ([6]; Thyroid): 1.5 ± 0.07 Fold
- induced Luciferase activity ([6]; Thyroid): 0.176 RLU/mg protein
- Fold (mean ± SEM), induced/basal Luciferase activity ([6]; iBAT): 64.6 ± 8.1 Fold
- induced Luciferase activity ([6]; iBAT): 1.820 RLU/mg protein
- Fold (mean ± SEM), induced/basal Luciferase activity ([7]; Bone): 0.9 ± 0.56 Fold
- induced Luciferase activity ([7]; Bone): 0.011 RLU/mg protein
- Fold (mean ± SEM), induced/basal Luciferase activity ([7]; CER): 1.9 ± 0.28 Fold
- induced Luciferase activity ([7]; CER): 0.023 RLU/mg protein
- Fold (mean ± SEM), induced/basal Luciferase activity ([7]; CTX): 1.8 ± 0.21 Fold
- induced Luciferase activity ([7]; CTX): 0.065 RLU/mg protein
- Fold (mean ± SEM), induced/basal Luciferase activity ([7]; HC): 1.1 ± 0.32 Fold
- induced Luciferase activity ([7]; HC): 0.040 RLU/mg protein
- Fold (mean ± SEM), induced/basal Luciferase activity ([7]; HT): 2.7 ± 1.35 Fold
- induced Luciferase activity ([7]; HT): 0.144 RLU/mg protein
- Fold (mean ± SEM), induced/basal Luciferase activity ([7]; Heart): 1.0 ± 0.47 Fold
- induced Luciferase activity ([7]; Heart): 0.003 RLU/mg protein
- Fold (mean ± SEM), induced/basal Luciferase activity ([7]; Liver): 1.7 ± 0.19 Fold
- induced Luciferase activity ([7]; Liver): 0.004 RLU/mg protein
- Fold (mean ± SEM), induced/basal Luciferase activity ([7]; MBH): 1.7 ± 0.29 Fold
- induced Luciferase activity ([7]; MBH): 0.240 RLU/mg protein
- Fold (mean ± SEM), induced/basal Luciferase activity ([7]; Muscle): 0.7 ± 0.18 Fold
- induced Luciferase activity ([7]; Muscle): 0.003 RLU/mg protein
- Fold (mean ± SEM), induced/basal Luciferase activity ([7]; Pit): 8.8 ± 0.62 Fold
- induced Luciferase activity ([7]; Pit): 16.926 RLU/mg protein
- Fold (mean ± SEM), induced/basal Luciferase activity ([7]; iBAT): 7.2 ± 1.54 Fold
- induced Luciferase activity ([7]; iBAT): 0.038 RLU/mg protein
